Experimental data reported in ChEMBL document CHEMBL5608179, “Triptonide induces apoptosis and inhibits the proliferation of ovarian cancer cells by activating the p38/p53 pathway and autophagy” (Bioorg Med Chem, 2024).
Activity calls are given as the source filed them. The calls are words filed in the database; no cut-off is given here.

Experiments:
[1] = test system: A2780; experiment: Induction of cell cycle arrest in human A2780 cells assessed as accumulation of cells at S phase at 2 nM measured after 24 hrs by PI staining based ell Cycle Analysis Kit (KeyGEN) (reference value: 10%); assay type: functional
[2] = test system: A2780; experiment: Induction of apoptosis in human A2780 cells assessed as necrotic cells at 8 nM measured after 24 to 72 hrs by Annexin V-FITC/PI flow cytometry (reference value: 0.39%); assay type: functional; conditions: time 24-72 hrs
[3] = test system: Huh-7; experiment: Cytotoxicity against human Huh-7 cells assessed as cell viability measured after 48 hrs by MTT assay; assay type: functional, cell-based; conditions: Huh-7, 48 h
[4] = test system: A2780; experiment: Cytotoxicity against human A2780 cells assessed as cell viability in presence of bafilomycin A1 upto 60 nM measured after 48 hrs by MTT assay; assay type: functional, cell-based
[5] = test system: A2780; experiment: Induction of apoptosis in human A2780 cells assessed as increase in cleaved PARP level measured at 5 to 20 nM by Western blot analysis; assay type: functional, cell-based; conditions: dose 5-20 nM, time 12-48 hrs, TDE = time-dependent effect
[6] = test system: A2780; experiment: Induction of apoptosis in human A2780 cells assessed as apoptotic rate measured after 24 to 72 hrs by Annexin V-FITC/PI flow cytometry; assay type: functional, cell-based; conditions: dose 2-8 nM, time 24-72 hrs
[7] = test system: A2780; experiment: Induction of cell cycle arrest in human A2780 cells assessed as accumulation of cells at G1 phase at 2 nM measured after 24 hrs by PI staining based ell Cycle Analysis Kit (KeyGEN) (reference value: 53.9%); assay type: functional
[8] = test system: A2780; experiment: Induction of cell cycle arrest in human A2780 cells assessed as accumulation of cells at G1 phase at 4 nM measured after 24 hrs by PI staining based ell Cycle Analysis Kit (KeyGEN) (reference value: 53.9%); assay type: functional
[9] = test system: A2780; experiment: Induction of apoptosis in human A2780 cells assessed as viable cells in presence of SB203580 at 8 nM measured after 24 to 72 hrs by Annexin V-FITC/PI flow cytometry (reference value: 94.2%); assay type: functional; conditions: time 24-72 hrs
[10] = test system: A2780; experiment: Induction of p38 expression in human A2780 cells at 5 to 20 nM measured after 24 hrs by Western blot analysis; assay type: functional, cell-based; conditions: dose 5-20 nM
[11] = test system: A2780; experiment: Induction of cell cycle arrest in human A2780 cells assessed as accumulation of cells at G1 phase in presence of SB203580 at 4 nM measured after 24 hrs by PI staining based Cell Cycle Analysis Kit (KeyGEN) (reference value: 54.2%); assay type: functional
[12] = test system: A2780; experiment: Induction of apoptosis in human A2780 cells assessed as increase in cleaved caspase 3 level measured after 12 to 48 hrs by Western blot analysis; assay type: functional, cell-based; conditions: dose 5-20 nM, time 12-48 hrs
[13] = test system: A2780; experiment: Induction of cell cycle arrest at S phase in human A2780 cells assessed as increase in cyclin B1 proteins in presence of SB203580 measured at 10 nM after 24 hrs by Western blot analysis; assay type: functional, cell-based
[14] = test system: A2780; experiment: Induction of apoptosis in human A2780 cells assessed as increase in cleaved caspase 9 level measured at 5 to 20 nM by Western blot analysis; assay type: functional, cell-based; conditions: dose 5-20 nM, time 12-48 hrs, TDE = time-dependent effect
[15] = test system: A2780; experiment: Inhibition of colony formation in human A2780 cells in presence of SB203580 at 0.25 nM incubated for 48 hrs by crystal violet staining based colony counting method; assay type: functional, cell-based
[16] = test system: A2780; experiment: Induction of apoptosis in human A2780 cells assessed as early apoptotic cells at 800 nM measured after 24 hrs by Annexin V-FITC/PI flow cytometry (reference value: 2.17%); assay type: functional
[17] = test system: A2780; experiment: Induction of cell cycle arrest at S phase in human A2780 cells assessed as increase in CDK2 proteins measured after 24 hrs by Western blot analysis; assay type: functional, cell-based; conditions: dose 5-20 nM
[18] = test system: A2780; experiment: Reduction in p62 expression in human A2780 cells at 5 to 20 nM measured after 24 hrs by Western blot analysis; assay type: functional, cell-based; conditions: dose 5-20 nM
[19] = test system: A2780; experiment: Induction of apoptosis in human A2780 cells assessed as viable cells in presence of p53 SiRNA 1 at 4 nM measured after 24 hrs by Annexin V-FITC/PI flow cytometry (reference value: 94.2%); assay type: functional
[20] = test system: A2780; experiment: Induction of cell cycle arrest at S phase in human A2780 cells assessed as increase in CDK2 proteins in presence of SB203580 measured at 10 nM after 24 hrs by Western blot analysis; assay type: functional, cell-based
[21] = test system: A2780; experiment: Induction of apoptosis in human A2780 cells assessed as apoptotic rate measured at 2 to 8 nM by Annexin V-FITC/PI flow cytometry; assay type: functional, cell-based; conditions: dose 2-8 nM, time 24-72 hrs, TDE = time-dependent effect
[22] = test system: A2780; experiment: Induction of apoptosis in human A2780 cells assessed as early apoptotic cells in presence of p53 SiRNA 1 at 4 nM measured after 24 hrs by Annexin V-FITC/PI flow cytometry (reference value: 2.82%); assay type: functional
[23] = test system: A2780; experiment: In vivo antitumor activity against human A2780 cells subcutaneously inoculated in BALB/c-nu mouse assessed as reduction in tumor weight at 3 to 5 mg/kg, ip administered every day for 20 days; assay type: functional, organism-based; conditions: dose 3-5 mg/kg, time 20.0 day
[24] = test system: A2780; experiment: Induction of cleaved PARP level in human A2780 cells in presence of autophagy inhibitor bafilomycin A1 at 5 to 20 nM measured after 24 hrs by Western blot analysis; assay type: functional, cell-based; conditions: dose 5-20 nM
[25] = test system: A2780; experiment: In vivo antitumor activity against human A2780 cells subcutaneously inoculated in BALB/c-nu mouse assessed as inhibition of tumor growth at 3 to 5 mg/kg, ip administered every day for 20 days; assay type: functional, organism-based; conditions: dose 3-5 mg/kg, time 20.0 day
[26] = test system: A2780; experiment: Induction of apoptosis in human A2780 cells assessed as early apoptotic cells in presence of bafilomycin A1 at 800 nM measured after 24 hrs by Annexin V-FITC/PI flow cytometry (reference value: 2.17%); assay type: functional
[27] = test system: A2780; experiment: Induction of cell cycle arrest in human A2780 cells assessed as accumulation of cells at G1 phase at 4 nM measured after 24 hrs by PI staining based Cell Cycle Analysis Kit (KeyGEN) (reference value: 54.2%); assay type: functional
[28] = test system: A2780; experiment: Induction of LC3II expression in human A2780 cells in presence of autophagy inhibitor bafilomycin A1 at 5 to 20 nM measured after 24 hrs by Western blot analysis; assay type: functional, cell-based; conditions: dose 5-20 nM
[29] = Toxicity in BALB/c-nu mouse subcutaneously inoculated with human A2780 cells assessed as morphological changes of heart at 3 to 5 mg/kg, ip administered every day for 20 days by HE staining analysis; assay type: organism-based; conditions: in vivo, sc, 480 h, dose 3-5 mg/kg, time 20 day
[30] = test system: A2780; experiment: Induction of apoptosis in human A2780 cells assessed as necrotic cells in presence of SB203580 at 8 nM measured after 24 to 72 hrs by Annexin V-FITC/PI flow cytometry (reference value: 0.39%); assay type: functional; conditions: time 24-72 hrs
[31] = test system: A2780; experiment: Induction of apoptosis in human A2780 cells assessed as early apoptotic cells at 4 nM measured after 24 hrs by Annexin V-FITC/PI flow cytometry (reference value: 2.82%); assay type: functional
[32] = biological target: MAP kinase p38 (Homo sapiens) (UniProt O15264+Q15759+Q16539+P53778); experiment: Activation of p38 in human A2780 cells assessed as increase phosphorylation of p38 at 5 to 20 nM measured after 24 hrs by Western blot analysis; assay type: cell-based; conditions: filed as activator, dose 5-20 nM

`CC(C)[C@]12O[C@H]1[C@@H]1O[C@]13[C@]1(O[C@H]1C[C@H]1C4=C(CC[C@@]13C)C(=O)OC4)[C@@H]2O` [TRIPTOLIDE] gave an Activity [1] of 19.9%, an Activity [2] of 5.59% and an IC50 [3] of 74.6 nM. The Activity [4] was “inactive”, the Activity [5] was “Tde” and the Activity [6] was “Dose-Dependent Effect”. For the same molecule, the Activity [7] was 62.6%, the Activity [8] was 68.9% and the Activity [9] was 69%. The Activity [10] was “Active”, the Activity [11] was 48.7% and the Activity [12] was “Dose-Dependent Effect”. The Activity [13] was “inactive”, the Activity [14] was “Tde” and the inhibition [15] was “inactive”. For the same molecule, the Activity [16] was 14.7%, the Activity [17] was “Dose-Dependent Effect” and the Activity [18] was “Active”. For the same molecule, the Activity [19] was 65.9%, the Activity [20] was “inactive” and the Activity [21] was “Tde”. For the same molecule, the Activity [22] was 11.7%, the Activity [23] was “Active” and the Activity [24] was “inactive”. The Activity [25] was “Active”, the Activity [26] was 5.02% and the Activity [27] was 40%. The Activity [28] was “inactive”, the Activity [29] was “Non-Toxic” and the Activity [30] was 5.87%. For the same molecule, the Activity [31] was 29.5% and the Activity [32] was “Active”.
